Results on 1 compound are retold here after PMC6030159 (Scientific Reports, 2018).

Entries after “also recorded” stand apart in the source; their conditions may differ.

Data set [1] has as its system normal IMR-90 and BJ human fibroblasts. Put plainly: Viable/dead cell counting, normal fibroblasts. Format: cell-based. The following applies: 12.5 μM, 24 hours. How it is done:
Triton-X-114 (Sigma). Truncated p53 core protein was a kind gift from Klas Wiman, CCK, […]
Cell proliferation assays. Cell growth and viability was estimated in triplicates with WST-1 (Roche) or Resazurin sodium salt (Sigma-Aldrich) assays in medium at 37°C and 5% CO 2 for 2 hours after which absorbance or fluorescence, respectively, was measured with an Omega Fluostar (BMG Labtech) in a 96 well plate format. Cell counting was done in 96 well plates with CellTracker Green (ThermoFisher) for 30 min in the incubator, after which DAPI was added for 5 min. Images were taken in the green (FITC) and blue (DAPI) channels using a fluorescence microscope (ImageXpress Micro, Molecular Devices). […] After 16 days, the colonies were stained with 100 µg/ml MTT (Sigma) overnight and colonies were counted.
Immunohistochemistry. Apoptosis was visualized at the single-cell level on tumor cryosections using the TUNEL method using the In Situ Cell Death Detection Fluorescein-Roche kit and analyzed by fluorescence microscopy. […] Cell proliferation and microvascular density (MVD) were evaluated through Ki67 and CD31staining, respectively, on tumor cryosections and detected by immunofluoresence. […] For quantification, areas with positive TUNEL and Ki67 staining were measured using Image J software. For the analysis of MVD, the number of vessel structures per microscopic field was calculated.

The subject of data set [2] is MYCN-amplified SK-N-DZ neuroblastoma cells. Put plainly: Viable/dead cell counting, SK-N-DZ. The following applies: 12.5 μM, 24 hours. Format: cell-based, human. The protocol:
Cell proliferation assays. […]
Fluostar (BMG Labtech) in a 96 well plate format. Cell counting was done in 96 well plates with CellTracker Green (ThermoFisher) for 30 min in the incubator, after which DAPI was added for 5 min. Images were taken in the green (FITC) and blue (DAPI) channels using a fluorescence microscope (ImageXpress Micro, Molecular Devices). […]
0.7% agarose. […]

Take `CCOc1ccc2nc3cc(/N=N/c4ccc(N)nc4N)ccc3c(N)c2c1` [MYCMI-6]: the “number of viable cells and percentage of dead cells, normal fibroblasts” value in data set [1] was “only marginal effects; also recorded: not cytotoxic”. For the same compound, the “cell death and cell number, SK-N-DZ” value in data set [2] is “dramatically increased cell death and reduced cell number; also recorded: killed almost 100%”.
